Results: patent US20250082633A1, “COMPOUNDS AND METHODS FOR MODULATING SPLICING” (REMIX THERAPEUTICS INC., priority 2021, published 2025)
Like-named read-outs stand apart in the source and are kept apart here.

What was measured:
[1] = system: HiBiT-tagged HTT protein in K562 cells; experiment: HiBit protein abundance assay, HTT; type: cell-based, human; settings: K562 HiBiT-modified cells, 24 hours, luminescence
Procedure: Compounds described herein were used to screen for effects on quantitative protein abundance using a HiBit assay system (Promega). Quantitative protein abundance was determined by measuring the protein levels of HiBit-tagged protein targets expressed in cell culture via luminescence using the Nano-Glo HiBiT Lytic Detection System, which uses a split complementation assay format to reconstitute NanoBiT enzyme to generate a luminescent signal. A protein abundance assay was developed such that endogenous protein targets could be modified with the HiBiT peptide tag and their abundance could be assessed after compound treatment. Briefly, K562 cell lines containing a HiBiT-modification were treated with various compounds described herein (e.g., compounds of Formulas (I), (II), or (III)). After treatment for 24 hours, the protein abundance of a specific target was determined by measuring luminescence. • Promega Nano-Glo HiBiT Lytic Detection System (cat #N3030) • Corning 384-well TC-treated microplates (cat #3570) • Synthego Engineered Cells Knock-In Clones [table] Cells were maintained in IMDM with 10% FBS. Before the assay, cells were diluted with phenolphthalein-free growth media (IMDM+1% FBS media) and were seeded in a 384-well plate at a density of 10000 cells/well (for each cell line listed in Table 6). Each compound was prepared as a 10-point 3-fold serial dilution in DMSO with the top dose at a final concentration of 10 μM in the well. Unmodified K562 cells were added at the previously specified density with DMSO to serve as an assay baseline and positive control (PC) and DMSO only with the respective modified cell lines was added to the negative control (NC) columns. Final DMSO concentration was kept at or below 0.25%. Treated cell plates were placed in an incubator at 37° C. with 5% CO2 for 24 hours. After 24 hours, 25 μL of Complete HiBit Lytic reagent was added to each well at room temperature (e.g. one plate requiring 10 mL Lytic Buffer, 100 μL LgBiT Protein, 200 μL Lytic Substrate), shaken for 5 minutes at 600 RPM, then left to sit for 10 minutes for signal to stabilize before reading on a Spark Cyto plate reader (Tecan) with a 500 ms measurement time. To determine compound effects on protein abundance of each target in Table 6, the percent response for each respective cell line was calculated at each compound concentration as follows: For the normalized response at each concentration, a four-parameter logistical regression was fit to the data and the response was interpolated at the 50% value to determine a concentration for protein abundance at 50% (IC50) the untreated control.

HTT mRNA = experiment: RT-qPCR splicing assay, HTT canonical (CJ) and alternative (AJ) junction mRNA; type: cell-based; settings: Homo sapiens; for IC50: read-out: HTT CJ IC50; for AC50: increase in alternative junction mRNA, read-out: HTT AJ AC50
Method in brief: (§1)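 Splice-junction mRNAs (CJ, AJ) measured by TaqMan one-step RT-qPCR on cell lysates, using PPIA as reference for adherent A673 and GAPDH or GUSB for K562. Cells exposed for 24 h to 11 threefold concentrations up to 10 uM final, with DMSO at or below 0.25%.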

MYB mRNA = experiment: RT-qPCR splicing assay, MYB canonical (CJ) and alternative (AJ) junction mRNA; type: cell-based; settings: Homo sapiens; for IC50: read-out: MYB CJ IC50; for AC50: increase in alternative junction mRNA, read-out: MYB AJ AC50
Method in brief: as §1

[2] = decrease in CJ mRNA levels, larger panel of genes, Table 3
[3] = decrease in canonical junction mRNA, A673 or K562 cells, 24 hours treatment, Table 2
[4] = A673 or K562 cells, 24 hours treatment, Table 2

Row | SMILES | IC50 [1] [nM] | IC50 (HTT mRNA; [2]) [nM] | IC50 (HTT mRNA; [3]) [nM] | IC50 (MYB mRNA; [2]) [nM] | IC50 (MYB mRNA; [3]) [nM] | AC50 (HTT mRNA; [4]) [nM] | AC50 (MYB mRNA; [4]) [nM]
1 | Cc1cn2nc(-c3cc(F)c4nn(C5CCN(CC6CC6)CC5)cc4c3)cc(C)c2n1 [Compound 149, 6-[2-[1-(cyclopropylmethyl)-4-piperidyl]-7-fluoro-indazol-5-yl]-2,8-dimethyl-imidazo[1,2-b]pyridazine] | < 100 | < 100 | < 100 | 100 to 1000 | 100 to 1000 | < 100 | 100 to 1000
2 | Cc1ccc2cc(-c3cc(F)c4nn(C5CCNCC5)cc4c3)ccc2n1 [Compound 163, 6-[7-fluoro-2-(4-piperidyl)indazol-5-yl]-2-methyl-quinoline] | 1000 to 10000 | > 10000 | > 10000 | > 10000 | > 10000 | > 10000 | > 10000
3 | Cc1nc2c(C)cc(-c3cc(F)c4nn(C5CCNCC5)cc4c3)cc2o1 [Compound 137, 6-[7-fluoro-2-(4-piperidyl)indazol-5-yl]-2,4-dimethyl-1,3-benzoxazole] | < 100 | < 100 | < 100 | 100 to 1000 | 100 to 1000 | < 100 | 100 to 1000
4 | Cc1cc(-n2cc3cc(N4CCNCC4)cc(F)c3n2)cc2cn(C)nc12 [Compound 117, 2-(2,7-dimethylindazol-5-yl)-7-fluoro-5-piperazin-1-yl-indazole] | 1000 to 10000 | > 10000 | > 10000 | > 10000 | > 10000 | 1000 to 10000 | 1000 to 10000
5 | Fc1cc(-c2ccc3ncccc3c2)cc2cn(C3CCNCC3)nc12 [Compound 162, 6-[7-fluoro-2-(4-piperidyl)indazol-5-yl]quinoline] | 1000 to 10000 | > 10000 | > 10000 | > 10000 | > 10000 | > 10000 | > 10000

More lines, main results first:

Row | IC50 [1] [nM] | IC50 (HTT mRNA; [2]) [nM] | IC50 (HTT mRNA; [3]) [nM] | IC50 (MYB mRNA; [2]) [nM] | IC50 (MYB mRNA; [3]) [nM] | SMILES | AC50 (HTT mRNA; [4]) [nM] | AC50 (MYB mRNA; [4]) [nM]
6 | < 100 | < 100 | < 100 | 100 to 1000 | 100 to 1000 | Cc1cn2cc(-c3cc(F)c4nn(C5CCNCC5)cc4c3)cc(F)c2n1 [Compound 129, 7-fluoro-5-(8-fluoro-2-methylimidazo[1,2-a]pyridin-6-yl)-2-(piperidin-4-yl)-2H-indazole] | < 100 | 100 to 1000
7 | 1000 to 10000 | > 10000 | > 10000 | 1000 to 10000 | 1000 to 10000 | Cc1cn2nc(-c3cc4cn(C5CCNCC5)nc4c(OCc4ccccc4)n3)cc(C)c2n1 [Compound 153, 6-[7-benzyloxy-2-(4-piperidyl)pyrazolo [3,4-c]pyridin-5-yl]-2,8-dimethyl-imidazo[1,2-b]pyridazine] | 1000 to 10000 | > 10000
8 | 1000 to 10000 | 1000 to 10000 | 1000 to 10000 | > 10000 | > 10000 | Cc1cn2nc(-n3cc4cc(C5CCNCC5)cc(F)c4n3)cc(C)c2n1 [Compound 120, 6-[7-fluoro-5-(4-piperidyl)indazol-2-yl]-2,8-dimethyl-imidazo[1,2-b]pyridazine] | > 10000 | 1000 to 10000
9 | 100 to 1000 | 100 to 1000 | 100 to 1000 | 1000 to 10000 | 1000 to 10000 | Cc1cn2nc(-c3cc(F)c4nn([C@H]5CCNC[C@@H]5F)cc4c3)cc(C)c2n1 [Compound 167, 6-(7-fluoro-2-((3S,4S)-3-fluoropiperidin-4-yl)-2H-indazol-5-yl)-2,8-dimethylimidazo[1,2-b]pyridazine] | 100 to 1000 | 1000 to 10000
10 | < 100 | < 100 | < 100 | 100 to 1000 | 100 to 1000 | Cn1cc2cc(-c3cc(F)c4nn(C5CCNCC5)cc4c3)cc(C#N)c2n1 [Compound 130, 5-[7-fluoro-2-(4-piperidyl)indazol-5-yl]-2-methyl-indazole-7-carbonitrile] | < 100 | 100 to 1000
